Where “and” joins values, the source holds several entries; their conditions need not be identical. Equal values may be shown once. Toxic doses and inconclusive results are not listed. How the source made its calls: active means survival T/C of 150% or more; inactive means T/C below 125% in these data.
System: P388 leukemia ip, CD2F1 mice, survival T/C
Test: NCI In Vivo Anticancer Drug Screen. Data for tumor model P388 Leukemia (intraperitoneal) in CD2F1 (CDF1) mice
Settings: endpoint: median survival time, higher = longer survival
Outline: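 Mice carrying the transplanted tumor received test compound or vehicle. Survival was recorded in each group, and the value is the treated-group measurement divided by that of the vehicle-treated control group.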

[1] = dose: 25.0 mg/kg/injection, schedule: Q01DX009 (ip), vehicle: saline with Tween-80
[2] = dose: 50.0 mg/kg/injection, schedule: Q01DX009 (ip), vehicle: saline with Tween-80
[3] = dose: 100.0 mg/kg/injection, schedule: Q01DX009 (ip), vehicle: saline with Tween-80
[4] = dose: 200.0 mg/kg/injection, schedule: Q01DX009 (ip), vehicle: saline with Tween-80
[5] = dose: 100.0 mg/kg/injection, schedule: Q01DX001 (ip), vehicle: Klucel (hydroxypropylcellulose) (HPC)
[6] = dose: 200.0 mg/kg/injection, schedule: Q01DX001 (ip), vehicle: Klucel (hydroxypropylcellulose) (HPC)
[7] = dose: 60.0 mg/kg/injection, schedule: Q01DX005 (ip), vehicle: saline with Tween-80
[8] = dose: 50.0 mg/kg/injection, schedule: Q01DX009 (ip), vehicle: saline
[9] = dose: 100.0 mg/kg/injection, schedule: Q01DX009 (ip), vehicle: saline
[10] = dose: 200.0 mg/kg/injection, schedule: Q01DX009 (ip), vehicle: saline
[11] = dose: 50.0 mg/kg/injection, schedule: Q01DX005 (ip), vehicle: saline with Tween-80
[12] = dose: 100.0 mg/kg/injection, schedule: Q01DX005 (ip), vehicle: saline with Tween-80
[13] = dose: 200.0 mg/kg/injection, schedule: Q01DX005 (ip), vehicle: saline with Tween-80
[14] = dose: 120.0 mg/kg/injection, schedule: Q01DX005 (ip), vehicle: saline with Tween-80
[15] = dose: 240.0 mg/kg/injection, schedule: Q01DX005 (ip), vehicle: saline with Tween-80

Measured: T/C

CNC(=O)OCc1cn(-c2ccc(Cl)c(Cl)c2)nc1COC(=O)NC
inactive: dose: 0.05 mg/kg/injection, schedule: Q01DX009 (ip), vehicle: distilled water + Tween-80 103 % of control | dose: 0.1 mg/kg/injection, schedule: Q01DX009 (ip), vehicle: distilled water + Tween-80 86 % of control | dose: 0.2 mg/kg/injection, schedule: Q01DX009 (ip), vehicle: distilled water + Tween-80 94 % of control | dose: 0.4 mg/kg/injection, schedule: Q01DX009 (ip), vehicle: distilled water + Tween-80 99 % of control | dose: 3.12 mg/kg/injection, schedule: Q01DX009 (ip), vehicle: distilled water + Tween-80 88 % of control | dose: 25.0 mg/kg/injection, schedule: Q01DX009 (ip), vehicle: distilled water + Tween-80 89 % of control | dose: 50.0 mg/kg/injection, schedule: Q01DX009 (ip), vehicle: distilled water + Tween-80 92 % of control | dose: 100.0 mg/kg/injection, schedule: Q01DX009 (ip), vehicle: distilled water + Tween-80 90 % of control

Cc1cccc2c1CC(C(C)C)C2 (configuration not stated)
inactive: [1] 111 % of control and 89 % of control | [2] 108 % of control and 96 % of control | [3] 104 % of control and 107 % of control | [4] 90 % of control

OC1CCCC1NC1CCCCC1 (configuration not stated)
inactive: dose: 15.0 mg/kg/injection, schedule: Q01DX005 (ip), vehicle: Klucel (hydroxypropylcellulose) (HPC) 102 % of control | dose: 30.0 mg/kg/injection, schedule: Q01DX005 (ip), vehicle: Klucel (hydroxypropylcellulose) (HPC) 102 % of control | dose: 60.0 mg/kg/injection, schedule: Q01DX005 (ip), vehicle: Klucel (hydroxypropylcellulose) (HPC) 104 % of control

O=C1OCCSCCOCCSCCOC(=O)c2cccc1n2
inactive: [5] 96 % of control | [6] 93 % of control | dose: 400.0 mg/kg/injection, schedule: Q01DX001 (ip), vehicle: Klucel (hydroxypropylcellulose) (HPC) 102 % of control

OCCNCCNCC[OH2+].OCCNCCNCC[OH2+].[Ni+2].[O-][Cl+3]([O-])([O-])[O-]
inactive: dose: 12.5 mg/kg/injection, schedule: Q01DX009 (ip), vehicle: saline 100 % of control | dose: 25.0 mg/kg/injection, schedule: Q01DX009 (ip), vehicle: saline 98 % of control

C=C1C(=O)OC(CCCCCCCCCCCCCC(C)=O)[C@H]1C(=O)O (some centres not stated)
inactive: dose: 5.0 mg/kg/injection, schedule: Q01DX005 (ip), vehicle: Klucel (hydroxypropylcellulose) (HPC) 93 % of control | dose: 5.0 mg/kg/injection, schedule: Q01DX005 (ip), vehicle: saline 93 % of control | dose: 10.0 mg/kg/injection, schedule: Q01DX005 (ip), vehicle: Klucel (hydroxypropylcellulose) (HPC) 90 % of control | dose: 10.0 mg/kg/injection, schedule: Q01DX005 (ip), vehicle: saline 91 % of control | dose: 20.0 mg/kg/injection, schedule: Q01DX005 (ip), vehicle: Klucel (hydroxypropylcellulose) (HPC) 110 % of control and 90 % of control and 107 % of control | dose: 20.0 mg/kg/injection, schedule: Q01DX005 (ip), vehicle: saline 96 % of control | dose: 40.0 mg/kg/injection, schedule: Q01DX005 (ip), vehicle: Klucel (hydroxypropylcellulose) (HPC) 105 % of control and 98 % of control | dose: 80.0 mg/kg/injection, schedule: Q01DX005 (ip), vehicle: Klucel (hydroxypropylcellulose) (HPC) 107 % of control

CN1CCCC(OC(=O)Oc2ccccc2)C1 (configuration not stated)
inactive: dose: 50.0 mg/kg/injection, schedule: Q01DX001 (ip), vehicle: other 101 % of control | dose: 100.0 mg/kg/injection, schedule: Q01DX001 (ip), vehicle: other 100 % of control | dose: 200.0 mg/kg/injection, schedule: Q01DX001 (ip), vehicle: other 102 % of control | dose: 400.0 mg/kg/injection, schedule: Q01DX001 (ip), vehicle: other 99 % of control

C=C(C(N)=O)C(N)C(=O)O (configuration not stated)
inactive: [7] 120 % of control

NC(=S)N/N=C/c1ccncc1
inactive: [1] 108 % of control | [2] 98 % of control | [3] 101 % of control | [4] 92 % of control

N#CC(C#N)=Cc1ccc(N2CCCCC2)cc1
inactive: [8] 87 % of control | [9] 88 % of control | [10] 100 % of control

O=C(/C=C/c1ccccc1)OCC12OC1C(O)C1C=COC(OC3OC(CO)C(O)C(O)C3O)C12 (configuration not stated)
inactive: dose: 4.38 mg/kg/injection, schedule: Q01DX005 (ip), vehicle: Klucel (hydroxypropylcellulose) (HPC) 96 % of control | dose: 8.75 mg/kg/injection, schedule: Q01DX005 (ip), vehicle: Klucel (hydroxypropylcellulose) (HPC) 94 % of control | dose: 17.5 mg/kg/injection, schedule: Q01DX005 (ip), vehicle: Klucel (hydroxypropylcellulose) (HPC) 97 % of control | dose: 35.0 mg/kg/injection, schedule: Q01DX005 (ip), vehicle: Klucel (hydroxypropylcellulose) (HPC) 97 % of control | dose: 70.0 mg/kg/injection, schedule: Q01DX005 (ip), vehicle: Klucel (hydroxypropylcellulose) (HPC) 97 % of control | dose: 100.0 mg/kg/injection, schedule: Q01DX005 (ip), vehicle: Klucel (hydroxypropylcellulose) (HPC) 95 % of control | dose: 200.0 mg/kg/injection, schedule: Q01DX005 (ip), vehicle: Klucel (hydroxypropylcellulose) (HPC) 103 % of control

CCOc1cc2c(cc1C(C)c1ccc(OC(C)C)cc1)OCO2 (configuration not stated)
inactive: dose: 25.0 mg/kg/injection, schedule: Q01DX005 (ip), vehicle: saline with Tween-80 108 % of control | [11] 106 % of control | [12] 103 % of control | [13] 103 % of control

COc1ccccc1N/N=c1\c2nc3ccccc3nc1n(-c1ccccc1C)c(=S)n2-c1ccccn1
inactive: [7] 102 % of control | [14] 96 % of control

CCOC(=O)c1ccc(NC(=S)NC(=O)c2cccc(Br)c2)cc1
inactive: [7] 95 % of control | [14] 95 % of control | [15] 90 % of control

Cc1cc(NC(=S)SC(C)C)ccc1Cl
inactive: [8] 99 % of control | [9] 102 % of control | [10] 102 % of control

CCOC(=O)C1=NCCS1
inactive: [11] 98 % of control | [12] 99 % of control | [13] 99 % of control

Cc1nc(Nc2ccccc2)c2c(C)c(C)[nH]c2n1
inactive: [7] 103 % of control | [14] 102 % of control | [15] 98 % of control

CCCCOP(=O)(O)OCCCC
inactive: [5] 111 % of control | [6] 105 % of control

O=C1C=CC2(C=C1)CCN(C(=O)C(F)(F)F)Cc1cc3c(cc12)OCO3
inactive: dose: 100.0 mg/kg/injection, schedule: Q04DX002 (ip), vehicle: saline with Tween-80 97 % of control | dose: 200.0 mg/kg/injection, schedule: Q04DX002 (ip), vehicle: saline with Tween-80 91 % of control | dose: 400.0 mg/kg/injection, schedule: Q04DX002 (ip), vehicle: saline with Tween-80 93 % of control

CC(C)(C)OC(=O)NC(Cc1ccc(OCc2c(Cl)cccc2Cl)cc1)C(=O)O (configuration not stated)
inactive: [11] 104 % of control | [12] 100 % of control | [13] 100 % of control

Nc1nc2ncc(CNc3ccc(C(=O)NC(CCC(=O)O)C(=O)O)cc3)cc2c(=O)[nH]1 (configuration not stated)
inactive: [11] 100 % of control | [12] 117 % of control | [13] 102 % of control

Nc1ccc(Cl)cc1C(=O)c1ccccc1Cl
inactive: [7] 96 % of control | [14] 96 % of control | [15] 90 % of control

O=C1OC(Cl)C=C1c1ccccc1 (configuration not stated)
inactive: dose: 50.0 mg/kg/injection, schedule: Q01DX009 (ip), vehicle: suspension in saline 95 % of control | dose: 100.0 mg/kg/injection, schedule: Q01DX009 (ip), vehicle: suspension in saline 101 % of control | dose: 200.0 mg/kg/injection, schedule: Q01DX009 (ip), vehicle: suspension in saline 101 % of control

— PubChem BioAssay AID330 (DTP/NCI, 2004)
